Experimental data taken from US20240270762A1, “PENICILLIN-BINDING PROTEIN INHIBITORS” (priority 2021, published 2024).
pIC50: −log10 of the molar value. Values after ≈ are worked out from the molar mass of the structure shown.

Key:
N. gonorrhoeae WHO Z = experiment: Liquid broth MIC in Fastidious broth; conditions: Neisseria gonorrhoeae, read-out: Minimum Inhibitory Concentration (MIC), N. gonorrhoeae WHO Z
[1] = target: T1, PBP3 from Acinetobacter baumannii (ATCC 19606) (Acinetobacter baumannii, UniProt A0ABX6CK25); experiment: Bocillin-FL fluorescence polarization competition binding, A. baumannii PBP3; conditions: fluorescence polarization competition binding assay using Bocillin-FL; read-out: A. baumannii PBP3 Potency
T1 sequence (A0ABX6CK25 64-610): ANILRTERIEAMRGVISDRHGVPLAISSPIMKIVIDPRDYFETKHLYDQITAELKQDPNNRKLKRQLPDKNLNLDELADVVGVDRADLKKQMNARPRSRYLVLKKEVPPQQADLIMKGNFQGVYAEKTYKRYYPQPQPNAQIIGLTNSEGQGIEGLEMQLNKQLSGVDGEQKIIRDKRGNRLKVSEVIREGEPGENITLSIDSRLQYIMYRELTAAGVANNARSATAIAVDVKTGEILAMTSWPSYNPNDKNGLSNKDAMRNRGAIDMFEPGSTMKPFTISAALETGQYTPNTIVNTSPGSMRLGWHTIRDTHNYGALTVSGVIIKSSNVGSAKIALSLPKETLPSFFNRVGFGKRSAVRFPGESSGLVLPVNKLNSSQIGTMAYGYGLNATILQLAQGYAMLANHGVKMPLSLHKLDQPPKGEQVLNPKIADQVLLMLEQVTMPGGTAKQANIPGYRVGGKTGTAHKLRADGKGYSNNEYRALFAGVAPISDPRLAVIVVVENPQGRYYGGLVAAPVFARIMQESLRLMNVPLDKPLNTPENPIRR
Procedure, shortened: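 Purified PBPs pre-incubated with inhibitor (E. coli PBP3 1.5 μM, 30 min; P. aeruginosa PBP3 0.75 μM, A. baumannii PBP1a 1 μM and PBP3 0.2 μM, 15 min), then Bocillin-FL 0.1 μM (0.05 μM for PBP1a) added; FP read up to 60 min. EC50 = concentration halving bound Bocillin-FL.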

P. aeruginosa ATCC 27853 = experiment: microbe, parasite or virus in culture; type: cell-based; conditions: Pseudomonas aeruginosa, ATCC27853, read-out: MIC P. aeruginosa ATCC 27853
K. pneumoniae UMM = experiment: microbe, parasite or virus in culture; type: cell-based; conditions: Klebsiella pneumoniae, read-out: MIC K. pneumoniae UMM
E. coli AG100 = experiment: microbe, parasite or virus in culture; type: cell-based; conditions: Escherichia coli, AG100, read-out: MIC E. coli AG100
A. baumannii ATCC 19606 = experiment: microbe, parasite or virus in culture; type: cell-based; conditions: Acinetobacter baumannii, ATCC19606, read-out: MIC, A. baumannii ATCC 19606
E. coli 901C = experiment: microbe, parasite or virus in culture; type: cell-based; conditions: Escherichia coli, read-out: MIC E. coli 901C

Row | SMILES | MIC (N. gonorrhoeae WHO Z) [µg/mL] | pIC50 [1] | MIC (P. aeruginosa ATCC 27853) [µg/mL] | MIC (K. pneumoniae UMM) [µg/mL] | MIC (E. coli AG100) [µg/mL] | MIC (A. baumannii ATCC 19606) [µg/mL] | MIC (E. coli 901C) [µg/mL]
1 | CCN1CCN(C(=O)N[C@@H](C(=O)N[C@H]2Cc3ccc(F)c(C(=O)O)c3OB2O)c2ccc(P(=O)(O)O)cc2)C(=O)C1=O (single isomer, unassigned) [Example 10] | < 1 | > 5.00 | 32 to 64 (≈ 52.8 to 106 µM) | > 128 | > 128 | 32 to 64 (≈ 52.8 to 106 µM) | < 1
2 | CS(=O)(=O)N1CCN(C(=O)N[C@@H](C(=O)N[C@H]2Cc3cccc(C(=O)O)c3OB2O)c2ccc(P(=O)(O)O)c(F)c2F)C1=O (single isomer, unassigned) [Example 13] | < 1 | > 5.00 | > 128 | > 128 | 32 to 64 (≈ 49.5 to 99 µM) | 32 to 64 (≈ 49.5 to 99 µM) | < 1
3 | CS(=O)(=O)N1CCN(C(=O)N[C@@H](C(=O)N[C@H]2Cc3cccc(C(=O)O)c3OB2O)c2ccc(P(=O)(O)O)c(F)c2)C1=O (single isomer, unassigned) [Example 15] | < 1 | > 5.00 | > 128 | > 128 | 32 to 64 (≈ 50.9 to 102 µM) | 32 to 64 (≈ 50.9 to 102 µM) | < 1
4 | CS(=O)(=O)N1CCN(C(=O)N[C@@H](C(=O)N[C@H]2Cc3cccc(C(=O)O)c3OB2O)c2cc(F)c(P(=O)(O)O)c(F)c2)C1=O (single isomer, unassigned) [Example 18] | < 1 | > 5.00 | > 128 | 32 to 64 (≈ 49.5 to 99 µM) | 32 to 64 (≈ 49.5 to 99 µM) | 32 to 64 (≈ 49.5 to 99 µM) | < 1
5 | N[C@@H](C(=O)N[C@H]1Cc2cccc(C(=O)O)c2OB1O)c1ccc(P(=O)(O)O)cc1 (single isomer, unassigned) [Example 171] | > 64 | 3.60 to 4.30 | > 128 | > 128 | > 128 | > 128 | > 128
6 | CS(=O)(=O)N1CCN(C(=O)NC(C(=O)N[C@H]2Cc3cccc(C(=O)O)c3OB2O)c2ccc(P(=O)(O)O)c(Cl)c2)C1=O (stereo partly drawn) [Example 11, (3R)-3-(2-(3-chloro-4-phosphonophenyl)-2-(3-(methylsulfonyl)-2-oxoimidazolidine-1-carboxamido)acetamido)-2-hydroxy-3,4-dihydro-2H-benzo[e][1,2]oxaborinine-8-carboxylic acid] | < 1 | > 5.00 | > 128 | > 128 | 32 to 64 (≈ 49.6 to 99.3 µM) | > 128 | < 1
7 | NC(C(=O)N[C@H]1Cc2ccc(F)c(C(=O)O)c2OB1O)c1ccc(P(=O)(O)O)cc1 (stereo partly drawn) [Example 14, (3R)-3-(2-amino-2-(4-phosphonophenyl)acetamido)-7-fluoro-2-hydroxy-3,4-dihydro-2H-benzo[e][1,2]oxaborinine-8-carboxylic acid] | > 64 | < 3.60 | > 128 | > 128 | > 128 | > 128 | > 128
8 | CS(=O)(=O)N1CCN(C(=O)N[C@@H](C(=O)N[C@H]2Cc3ccc(F)c(C(=O)O)c3OB2O)c2ccc(P(=O)(O)O)c(F)c2F)C1=O [Example 16, (R)-3-((R)-2-(2,3-difluoro-4-phosphonophenyl)-2-(3-(methylsulfonyl)-2-oxoimidazolidine-1-carboxamido)acetamido)-7-fluoro-2-hydroxy-3,4-dihydro-2H-benzo[e][1,2]oxaborinine-8-carboxylic acid] | < 1 | > 5.00 | > 128 | > 128 | > 128 | > 128 | < 1
9 | CS(=O)(=O)N1CCN(C(=O)NC(C(=O)N[C@H]2Cc3cccc(C(=O)O)c3OB2O)c2ccc(P(=O)(O)O)c(O)c2)C1=O (stereo partly drawn) [Example 17, (3R)-2-hydroxy-3-(2-(3-hydroxy-4-phosphonophenyl)-2-(3-(methylsulfonyl)-2-oxoimidazolidine-1-carboxamido)acetamido)-3,4-dihydro-2H-benzo[e][1,2]oxaborinine-8-carboxylic acid] | < 1 | > 5.00 | 32 to 64 (≈ 51.1 to 102 µM) | 32 to 64 (≈ 51.1 to 102 µM) | 8 to 16 (≈ 12.8 to 25.5 µM) | 2 to 4 (≈ 3.19 to 6.39 µM) | < 1
10 | O=C(O)c1cccc2c1OB(O)[C@@H](NC(=O)[C@H](NC(=O)c1c[nH]ccc1=O)c1ccc(P(=O)(O)O)cc1)C2 [Example 175, (R)-2-hydroxy-3-((R)-2-(4-oxo-1,4-dihydropyridine-3-carboxamido)-2-(4-phosphonophenyl)acetamido)-3,4-dihydro-2H-benzo[e][1,2]oxaborinine-8-carboxylic acid] | 4 to 8 (≈ 7.39 to 14.8 µM) | – | 32 to 64 (≈ 59.1 to 118 µM) | 32 to 64 (≈ 59.1 to 118 µM) | 32 to 64 (≈ 59.1 to 118 µM) | > 128 | 2 to 4 (≈ 3.7 to 7.39 µM)
11 | O=C(O)c1cccc2c1OB(O)[C@@H](NC(=O)C(NC(=O)c1cnc[nH]c1=O)c1ccc(P(=O)(O)O)cc1)C2 (stereo partly drawn) [Example 176, (3R)-2-hydroxy-3-(2-(6-oxo-1,6-dihydropyrimidine-5-carboxamido)-2-(4-phosphonophenyl)acetamido)-3,4-dihydro-2H-benzo[e][1,2]oxaborinine-8-carboxylic acid] | 16 to 32 (≈ 29.5 to 59 µM) | – | 32 to 64 (≈ 59 to 118 µM) | > 128 | > 128 | > 128 | 8 to 16 (≈ 14.8 to 29.5 µM)
12 | N#Cc1ccnc(C(=O)NC(C(=O)N[C@H]2Cc3cccc(C(=O)O)c3OB2O)c2ccc(P(=O)(O)O)cc2)c1 (stereo partly drawn) [Example 179, (3R)-3-(2-(4-cyanopicolinamido)-2-(4-phosphonophenyl)acetamido)-2-hydroxy-3,4-dihydro-2H-benzo[e][1,2]oxaborinine-8-carboxylic acid] | 16 to 32 (≈ 29.1 to 58.2 µM) | – | > 128 | > 128 | > 128 | > 128 | 8 to 16 (≈ 14.5 to 29.1 µM)
13 | N#Cc1cccc(C(=O)N[C@@H](C(=O)N[C@H]2Cc3cccc(C(=O)O)c3OB2O)c2ccc(P(=O)(O)O)cc2)n1 [Example 180, (R)-3-((R)-2-(6-cyanopicolinamido)-2-(4-phosphonophenyl)acetamido)-2-hydroxy-3,4-dihydro-2H-benzo[e][1,2]oxaborinine-8-carboxylic acid] | < 1 | – | > 128 | > 128 | > 128 | > 128 | < 1
14 | O=C(O)c1cccc2c1OB(O)[C@@H](NC(=O)C(NC(=O)c1ncccc1Cl)c1ccc(P(=O)(O)O)cc1)C2 (stereo partly drawn) [Example 183, (3R)-3-(2-(3-chloropicolinamido)-2-(4-phosphonophenyl)acetamido)-2-hydroxy-3,4-dihydro-2H-benzo[e][1,2]oxaborinine-8-carboxylic acid] | 16 to 32 (≈ 28.6 to 57.2 µM) | – | > 128 | > 128 | > 128 | > 128 | 8 to 16 (≈ 14.3 to 28.6 µM)
15 | O=C(NC(C(=O)N[C@H]1Cc2cccc(C(=O)O)c2OB1O)c1ccc(P(=O)(O)O)cc1)c1ccc(Cl)cn1 (stereo partly drawn) [Example 184, (3R)-3-(2-(5-chloropicolinamido)-2-(4-phosphonophenyl)acetamido)-2-hydroxy-3,4-dihydro-2H-benzo[e][1,2]oxaborinine-8-carboxylic acid] | < 1 | – | > 128 | > 128 | > 128 | > 128 | < 1
16 | NC(=O)c1ccc(C(=O)NC(C(=O)N[C@H]2Cc3cccc(C(=O)O)c3OB2O)c2ccc(P(=O)(O)O)cc2)nc1 (stereo partly drawn) [Example 188, (3R)-3-(2-(5-carbamoylpicolinamido)-2-(4-phosphonophenyl)acetamido)-2-hydroxy-3,4-dihydro-2H-benzo[e][1,2]oxaborinine-8-carboxylic acid] | 1 to 2 (≈ 1.76 to 3.52 µM) | – | > 128 | > 128 | > 128 | > 128 | < 1
17 | CCN1CCN(C(=O)NC(C(=O)N[C@H]2Cc3cccc(C(=O)O)c3OB2O)c2ccc(S(=O)(=O)O)cc2)C(=O)C1=O (stereo partly drawn) [Example 189, (3R)-3-(2-(4-ethyl-2,3-dioxopiperazine-1-carboxamido)-2-(4-sulfophenyl)acetamido)-2-hydroxy-3,4-dihydro-2H-benzo[e][1,2]oxaborinine-8-carboxylic acid] | 1 to 2 (≈ 1.7 to 3.4 µM) | – | > 128 | 32 to 64 (≈ 54.4 to 109 µM) | 32 to 64 (≈ 54.4 to 109 µM) | > 128 | < 1
